Measured values reported in patent US5547976A, “Further indole derivatives with antiviral activity” (Burroughs Wellcome Co., priority 1992, dated 1996).

Key:
[1] = test system: Human cytomegalovirus (HCMV), CMV strain AD 169; experiment: CMV assay (plaque reduction assay, MRC5 cells); assay type: cell-based; details: Human betaherpesvirus 5, HCMV strain AD 169
Description: Human cytomegalovirus (HCMV) was assayed in monolayers of either MRC5 cells (human embryonic lung) in multiwell trays. The strandard CMV strain AD 169 was used. Activity of compounds is determined in the plaque reduction assay, in which a cell monolayer is infected with a suspension of HCMV, and then overlaid with nutrient […] in the form of a gel to ensure that there is no spread of virus throughout the culture. A range of concentrations of compound of known molarity was incorporated in the nutrient agarose overlay. Plaque numbers at each concentration of drug are expressed as percentage of the control and a dose-response curve is drawn.

[2] = Cell toxicity (cell growth inhibition assay, MTT uptake); assay type: cell-based; details: monkey, 50% inhibition of cell viability at 96 hours, Vero cells, read-out: Cytoxicity CClD50
Description: Cell toxicity is assessed in cell growth inhibition assay. Subconfluent cultures of Vero cells grown on 96-well microtiter dishes are exposed to different dilutions of drug, and cell viability determined daily on replicate cultures using uptake of a tetrazolium dye (MTT). The concentration required for 50% inhibition of cell viability at 96 hours is termed CCID50.

SMILES | IC50 [1] [µM] | CC50 at 96 h [2] [µM]
O=C1NC(=O)c2c1c1c3cc(Cl)ccc3[nH]c1c1[nH]c3ccc(Cl)cc3c21 [12,13-Dihydro-3,9-dichloro-5H-indolo[2,3-a]pyrrolo[3,4-c]carbazole-5,7(6H)-dione] | 0.16 | > 125
O=C1c2c(c3c4ccccc4[nH]c3c3[nH]c4ccccc4c23)C(=O)N1Cc1cc(C(F)(F)F)cc(C(F)(F)F)c1 [12,13-Dihydro-6-(3,5-di-trifluoromethylphenylmethyl)-5H-indolo [2,3a]pyrrolo[3,4c]carbazole-5,7(6H)-dione] | 5.7 | > 125
O=C1c2c(c3c4ccccc4[nH]c3c3[nH]c4ccccc4c23)C(=O)N1Cc1cccc(C(F)(F)F)c1 [12,13-Dihydro-6-(3-trifluoromethylphenylmethyl)-5H-indolo[2,3a]pyrrolo[3,4c]-carbazole-5,7-(6H)-dione] | 1.2 | > 500
